Marks after values point to notes of the source that are not given here.
Key:
CDK9/Cyclin T1 = biological target: T1, CDK9/Cyclin T1 (Homo sapiens, UniProt P50750); experiment: CDK9 enzyme activity, LANCE ULight TR-FRET kinase assay; format: biochemical; conditions: 1000 μM ATP, 4 nM CDK9/Cyclin T1, 30 minutes
T1 construct: purchased Carna Biosciences 04-110
Procedure, shortened: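 Human CDK9/Cyclin T1 (4 nM) phosphorylated 100 nM ULight-MBP peptide at 1000 μM ATP for 30 min in HEPES/MgCl2/Triton buffer. The reaction was stopped with 20 mM EDTA plus 0.5 nM Eu anti-phospho-MBP antibody and equilibrated 1 h. Read-out was TR-FRET (ex 320, em 615/665 nm).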

A431 cells = experiment: Cell viability assay (Cell TiterGlo), A431 cells; format: cell-based; conditions: Homo sapiens, A-431, 24 hours
Experimental: Cell viability assays were performed using A431 or H929 cells. A431 cells were seeded in 96-well plates at 10,000 cells/well, and after overnight incubation, treated with compounds at 2-times the final concentration to result in a dose response of 3-fold dilutions from 10 μM to 0.0005 μM (50 μL/well, 0.1% final DMSO concentration). H929 cells were seeded in 96-well plates at 10,000 cells/well and treated immediately with compounds as described above. After 24 hours at 37° C., cell viability was measured using Cell TiterGlo reagent (Promega) with a luminescence reader. Alternately, cell viability assays were performed in 384-well format. A431 cells were seeded in 384-well plates at 2500 cells/well and, after overnight incubation, treated with compounds in a dose response of 3-fold dilutions from 10 μM to 0.0005 μM ([…], 0.1% final DMSO concentration). For the H929 viability assay, […] of the compounds was dispensed into 384-well plates in a dose response as described above and cells were immediately seeded in 384-well plates at 2500 cells/well. After 24 hours at […], cell viability was measured using Cell TiterGlo reagent (Promega) with a luminescence reader.

H929 cells = experiment: Cell viability assay (Cell TiterGlo), H929 cells; format: cell-based, human; conditions: Homo sapiens, NCI-H929, 24 hours
Procedure, shortened: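 A431 cells seeded overnight, H929 cells dosed at seeding; 3-fold dilutions 10 μM to 0.0005 μM, 0.1% final DMSO, 96- or 384-well format. Viability read by CellTiter-Glo luminescence after 24 h at 37 °C.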

H929 xenograft tumors = experiment: Xenograft tumor growth inhibition assay, H929 human multiple myeloma xenograft; format: in vivo, mice; conditions: IP, TW x 3; for % TGD (tumor growth delay): (T − C)/C × 100, median time to endpoint; for % TGI: female nude or SCID-beige mice, end of treatment period; for % removed from study: removed due to morbidity or weight loss in excess of 20%
Experimental: Xenograft Tumor Growth Inhibition Assay
The effect of Examples 1, 4, and 5 to inhibit the growth of H929 xenograft tumors implanted in mice was evaluated. NCI-H929 cells obtained from culture were suspended in cell culture medium (MEM, no calcium, no glutamine, Life Technologies Corporation) and diluted 1:1 with a solution of Matrigel™ (BD Biosciences, Franklin Lakes, N.J.). Tumor cells 5 million per site were inoculated subcutaneously into the right hind flank of female nude or SCID-beige mice (Charles River Labs).
Randomization into treatment and vehicle control groups (9-10/group) occurred when the mean tumor volume reached approximately 200 mm^3 Compounds were formulated in 2% DMSO, 5% Tween80, 20% PEG400, 73% HPMC. Administration of compound or vehicle was initiated on the day following randomization and continued for the indicated time. Tumors were measured twice a week throughout the treatment period using a pair of calipers and tumor volumes were calculated according to the formula V=L×W^2/2 (V: volume, mm^3; L: length, mm. W: width, […]). Tumor growth inhibition was calculated based on the mean tumor volume measured at the end of the treatment period according to the formula % TGI=100−mean tumor volume of treatment group/mean tumor volume of control group×100.

T1 sequence (P50750 whole entry): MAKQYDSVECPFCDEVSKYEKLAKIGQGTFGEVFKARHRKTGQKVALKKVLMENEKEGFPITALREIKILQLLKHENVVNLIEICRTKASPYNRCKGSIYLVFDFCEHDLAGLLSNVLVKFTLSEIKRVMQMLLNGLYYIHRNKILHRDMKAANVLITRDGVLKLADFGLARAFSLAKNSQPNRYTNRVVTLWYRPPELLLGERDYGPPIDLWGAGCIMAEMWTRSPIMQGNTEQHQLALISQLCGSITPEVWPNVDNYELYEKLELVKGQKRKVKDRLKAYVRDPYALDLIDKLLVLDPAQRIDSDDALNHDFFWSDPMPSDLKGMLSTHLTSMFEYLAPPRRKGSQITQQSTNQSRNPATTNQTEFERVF
T1 sequence (O60563 whole entry partner): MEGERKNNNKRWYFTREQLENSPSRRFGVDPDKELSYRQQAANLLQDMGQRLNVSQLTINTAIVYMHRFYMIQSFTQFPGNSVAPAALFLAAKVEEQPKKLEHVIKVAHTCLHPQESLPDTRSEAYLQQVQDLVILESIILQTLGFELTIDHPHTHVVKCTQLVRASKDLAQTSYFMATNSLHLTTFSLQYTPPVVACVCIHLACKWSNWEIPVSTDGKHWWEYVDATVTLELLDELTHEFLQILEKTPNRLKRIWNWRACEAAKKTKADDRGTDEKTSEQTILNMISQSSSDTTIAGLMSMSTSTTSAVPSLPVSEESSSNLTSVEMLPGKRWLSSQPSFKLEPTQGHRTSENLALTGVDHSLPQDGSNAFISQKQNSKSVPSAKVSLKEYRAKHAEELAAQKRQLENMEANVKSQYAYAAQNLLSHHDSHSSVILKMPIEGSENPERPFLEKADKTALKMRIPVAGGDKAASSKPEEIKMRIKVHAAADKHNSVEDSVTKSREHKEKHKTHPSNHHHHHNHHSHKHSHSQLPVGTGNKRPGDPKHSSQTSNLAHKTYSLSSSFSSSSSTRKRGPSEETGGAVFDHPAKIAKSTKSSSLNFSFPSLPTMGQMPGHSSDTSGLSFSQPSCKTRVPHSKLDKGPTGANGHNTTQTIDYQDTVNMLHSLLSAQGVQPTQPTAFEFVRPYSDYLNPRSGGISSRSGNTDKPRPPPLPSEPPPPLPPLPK

Work on `CS(=O)(=O)N1CCC(c2cc3c(-c4ccc5ncn(Cc6cccc(F)c6)c5c4)ccnc3[nH]2)CC1` [Example 4, 1-(3-fluorobenzyl)-6-{2-[1-(methylsulfonyl)piperidin-4-yl]-1H-pyrrolo[2,3-b]pyridin-4-yl}-1H-benzimidazole] yielded an IC50 (CDK9/Cyclin T1) of 24 nM, an EC50 (A431 cells) of 9 nM and an EC50 (H929 cells) of 15 nM. For the same compound, the “% TGD (tumor growth delay)” value (H929 xenograft tumors; 3.75 mg/kg) was 5%, the “% TGI” value (H929 xenograft tumors; 3.75 mg/kg) was 25% and the “% removed from study” value (H929 xenograft tumors; 3.75 mg/kg) was 0%. The “% TGD (tumor growth delay)” value (H929 xenograft tumors; 7.50 mg/kg) was 42*** %, the “% TGI” value (H929 xenograft tumors; 7.50 mg/kg) was 62** % and the “% removed from study” value (H929 xenograft tumors; 7.50 mg/kg) was 11%.
